We go through two molecules from patent US20040116522A1, “Medicinal solutions” (priority 2001, published 2004).

The conditions of data set [1]: cited from earlier work.
The nature of data set [2]: Serum drug concentration after subcutaneous implantation of the minipump of Example 6. The class given is in vivo. To be noted: from s.c. minipump of Example 6 in male SD rats. An excerpt: The subcutaneous implantation type minipump prepared in Example 6 was subcutaneously implanted in the back of 7-week-old male SD rats. After a predetermined time after the implantation, blood was drawn from the tail vein of the rats, and serum was separated.

The pKa is the pH at which an ionisable group is half protonated.

As for `O=C(O)c1cc2ccccc2cc1O` [3-hydroxy-2-naphthoic acid], the pKa in data set [1] is listed as 2.708.

Turning to `CONC(=O)Nc1ccc(-c2sc3c(c2CN(C)Cc2ccccc2)c(=O)n(-c2ccccc2)c(=O)n3Cc2c(F)cccc2F)cc1` [Reference Example 7, 5-(N-Benzyl-N-methylaminomethyl)-1-(2,6-difluorobenzyl)-6-[4-(3-methoxyureido)phenyl]-3-phenylthieno[2,3-d]pyrimidine-2,4(1H,3H)-dione], in data set [2], the “Period of sustained release” value came to 21 days.
